Laboratory results from US10239844B2, “Disubstituted triazole analogs” (BioVentures, LLC, priority 2014, dated 2019).

Key:
[1] = test system: GFP expressing leukemia cells; assay: In vivo anti-leukemic activity, GFP expressing leukemia cells injected into mice; conditions: 3.5 mg/kg
Procedure: The anti-leukemic activity of Compound 8 (FIG. 1) was evaluated in vivo. GFP expressing leukemia cells were injected into mice. One week post injection, mice were treated with Compound 8 at 3.5 mg/kg or DMSO (control) (FIG. 11A). Mice were imaged one week later. […] Further, bone marrow was isolated and the percent of GFP expressing AML stem cells was quantitated.

[2] = test system: Hs578T cells; assay: Hs578T cell viability, Calcein-AM fluorescence, 48 hours; format: cell-based; conditions: Homo sapiens, Hs-578T
Procedure: Some of these compounds were also screened against breast cancer cell line Hs578T. Briefly, Hs578T cells were seeded at 3,000 cells per well into 96-well plates and incubated overnight at 37° C. in DMEM (Dulbecco's Modified Eagle's Medium) containing 10% FBS (Fetal Bovine Serum) medium. The following day, various concentrations of combretastin analogs, or vehicle, were added to each plate and the plates were then incubated for 48 hours. Then, cells were washed twice with Dulbecco's Phosphate-Buffered Saline (DPBS) pH 7.4 and incubated with 2 μM Calcein-AM for 30 minutes at 25° C. Fluorescence was measured using a 490 nm excitation filter and a 520 nm emission filter. The fluorescence intensity is proportional to the number of viable cells. The fluorescence intensity of control (untreated) cells was taken as 100% viability. The relative cell viability compared to control was calculated by using the following formula: Cell viability (%)=Fluorescence intensity of treated cells/Fluorescence intensity of untreated cells×100.
The GI50 values (growth inhibition; anti-proliferation) were calculated using GraphPad prism (San Diego, Calif.) by plotting the percent cell viability as a function of the compound concentration and fit to a four-parameter logistic model. The data represents mean±standard deviation of three independent experiments.

| melting point | SMILES | tumor shrinkage, imaging of GFP expressing cells (FIG. 11C) ([1]; imaged one week after treatment, relative to DMSO and untreated mice) | percent of GFP expressing AML stem cells in bone marrow (FIG. 10) ([1]; isolated bone marrow) | average radiance (FIG. 11B) ([1]; versus DMSO control) | GI50 [2] |
| --- | --- | --- | --- | --- | --- |
|  | COc1cc(-c2n[nH]nc2-c2ccc3c(c2)OCO3)cc(OC)c1OC [Compound 8, 4-(benzo[d][1,3]dioxol-5-yl)-5-(3,4,5-trimethoxyphenyl)-2H-1,2,3-triazole] | significant tumor shrinkage | significant reduction in AML stem cells | significant reduction in leukemia cells |  |
| 189 to 191 °C | COc1cc(-c2n[nH]nc2-c2cc3ccccc3s2)cc(OC)c1OC [PNR-7-74, 4-(benzo[b]thiophen-2-yl)-5-(3,4,5-trimethoxyphenyl)-2H-1,2,3-triazole] |  |  |  | 0.0103 µM |
| 158 to 160 °C | COc1cc(-c2n[nH]nc2-c2cc3ccccc3o2)cc(OC)c1OC [PNR-7-81, 4-(benzofuran-2-yl)-5-(3,4,5-trimethoxyphenyl)-2H-1,2,3-triazole] |  |  |  | 0.0203 µM |
|  | COc1cc(OC)cc(-c2n[nH]nc2-c2cc3ccccc3s2)c1 [PNR-7-83, 4-(benzo[b]thiophen-2-yl)-5-(3,5-dimethoxyphenyl)-2H-1,2,3-triazole] |  |  |  | 0.0665 µM |
